Data as given in US20060020036A1, “Methods and compositions to promote bone homestasis” (priority 2004, published 2006).
“Also recorded” adds a separate entry of the source.

Test system: RUNX2 (DN-RUNX2) in MPCs infected with Ad-NR1H3
Test: DN-RUNX2 assay (AP activity in MPCs)
Type: cell-based, human
Settings: Ad-NR1H3 in the presence of T0901317, Ad-DN-RUNX2 vs Ad-luciferase, 6 days post infection
Protocol: MPCs are seeded at 1000 cells/well in a 384 well plate and infected the next day with adenoviruses encoding hCAR (MOI 250), Ad-BMP2 (MOIs 6000, 2000, 666) and one of Ad-DN-RUNX2 or Ad-luciferase (MOIs 2000 or 666). Alkaline phosphatase activity is read 6 days post infection.
MPCs are seeded at 1000 cells/well in a 384 well plate and are infected the next day with adenoviruses encoding hCAR (MOI 250), Ad-BMP2, Ad-ESRRG, Ad-NR5A2, Ad-NR1H3 (MOIs 6000, 2000, 666) and one of Ad-DN-RUNX2 or Ad-luciferase (MOI 1000 or MOIs 2000 and 666) (see FIG. 19 (C)). Alkaline phosphatase activity is read 6 days post infection and raw data are analysed.

O=S(=O)(c1ccccc1)N(CC(F)(F)F)c1ccc(C(O)(C(F)(F)F)C(F)(F)F)cc1 [T0901317, N-(2,2,2-trifluoroethyl)-N-[4-[2,2,2-trifluoro-1-hydroxy-1-(trifluoromethyl)ethyl]phenyl]-benzenesulfonamide]
up-regulation of AP activity upon overexpression of DN-RUNX2: overexpression of DN-RUNX2 significantly reduces the up-regulation of AP activity; also recorded: DN-RUNX2 interferes with induction of AP activity
